The term Km denotes the concentration of substrate that gives half-maximal velocity.

Where only a bound is given, the exact number is not on record here.

The values that follow come from PMC8580884, “A Novel System for Evaluating the Inhibition Effect of Drugs on Cytochrome P450 Enzymes in vitro Based on Human-Induced Hepatocytes (hiHeps)” (Frontiers in Pharmacology, 2021).

For series [1], the target named is T1, CYP3A4 (Homo sapiens, UniProt P08684).
T1 construct: native enzyme in human liver microsomes (IC50) or human-induced hepatocytes hiHeps (Km); read by midazolam to 1'-hydroxymidazolam (CYP3A5 may contribute)
T1 sequence (P08684 2-503): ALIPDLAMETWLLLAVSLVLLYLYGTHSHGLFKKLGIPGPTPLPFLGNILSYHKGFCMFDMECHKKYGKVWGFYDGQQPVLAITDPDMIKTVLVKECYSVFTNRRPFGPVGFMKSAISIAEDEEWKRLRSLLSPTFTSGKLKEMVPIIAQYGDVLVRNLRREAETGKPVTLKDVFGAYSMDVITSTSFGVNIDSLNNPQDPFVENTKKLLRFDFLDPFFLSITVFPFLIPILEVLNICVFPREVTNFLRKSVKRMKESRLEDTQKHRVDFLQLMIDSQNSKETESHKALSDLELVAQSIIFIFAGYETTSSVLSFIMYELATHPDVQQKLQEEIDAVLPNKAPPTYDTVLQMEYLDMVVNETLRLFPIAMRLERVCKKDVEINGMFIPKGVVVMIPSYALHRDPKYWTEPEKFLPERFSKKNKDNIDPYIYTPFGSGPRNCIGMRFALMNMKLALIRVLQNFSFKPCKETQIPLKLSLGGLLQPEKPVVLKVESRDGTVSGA
As to the kind of experiment: human liver microsomes, cocktail probe assay, UPLC-MS/MS. The format is biochemical. Conditions: 10 μM midazolam in five-probe cocktail, NADPH, MgCl2, alamethicin, 37°C, 60 min; read-out: IC50 (μM) / HLM. The text has this:
human liver microsomes, cocktail probe assay, UPLC-MS/MS on CYP3A4
(Liver microsomes are vesicles of endoplasmic reticulum, rich in cytochrome P450 enzymes.)

Series [2] deals with T2, CYP2C19 (Homo sapiens, UniProt P33261).
T2 construct: native enzyme in human liver microsomes (IC50) or human-induced hepatocytes hiHeps (Km)
T2 sequence (P33261 whole entry): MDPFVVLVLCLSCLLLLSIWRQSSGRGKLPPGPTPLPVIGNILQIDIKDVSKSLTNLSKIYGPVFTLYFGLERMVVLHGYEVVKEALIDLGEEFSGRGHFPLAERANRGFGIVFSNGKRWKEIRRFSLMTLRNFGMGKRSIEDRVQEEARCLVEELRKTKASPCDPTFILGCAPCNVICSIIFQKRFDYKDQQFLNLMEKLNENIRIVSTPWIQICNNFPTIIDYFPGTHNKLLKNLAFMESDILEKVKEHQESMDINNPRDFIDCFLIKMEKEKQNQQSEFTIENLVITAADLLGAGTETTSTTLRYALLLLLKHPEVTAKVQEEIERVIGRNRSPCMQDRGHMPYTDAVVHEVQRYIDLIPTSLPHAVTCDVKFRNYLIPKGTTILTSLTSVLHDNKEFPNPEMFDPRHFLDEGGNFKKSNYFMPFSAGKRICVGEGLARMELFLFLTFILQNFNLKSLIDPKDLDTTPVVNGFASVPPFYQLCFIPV
The series is described as above. The class given is biochemical. Particulars: read-out: IC50 (μM) / HLM. The text has this: human liver microsomes, cocktail probe assay, UPLC-MS/MS on CYP2C19

Series [3] concerns the target T3, CYP2B6 (Homo sapiens, UniProt P20813).
T3 construct: native enzyme in human liver microsomes (IC50) or human-induced hepatocytes hiHeps (Km); read by bupropion to hydroxybupropion
T3 sequence (P20813 1-491): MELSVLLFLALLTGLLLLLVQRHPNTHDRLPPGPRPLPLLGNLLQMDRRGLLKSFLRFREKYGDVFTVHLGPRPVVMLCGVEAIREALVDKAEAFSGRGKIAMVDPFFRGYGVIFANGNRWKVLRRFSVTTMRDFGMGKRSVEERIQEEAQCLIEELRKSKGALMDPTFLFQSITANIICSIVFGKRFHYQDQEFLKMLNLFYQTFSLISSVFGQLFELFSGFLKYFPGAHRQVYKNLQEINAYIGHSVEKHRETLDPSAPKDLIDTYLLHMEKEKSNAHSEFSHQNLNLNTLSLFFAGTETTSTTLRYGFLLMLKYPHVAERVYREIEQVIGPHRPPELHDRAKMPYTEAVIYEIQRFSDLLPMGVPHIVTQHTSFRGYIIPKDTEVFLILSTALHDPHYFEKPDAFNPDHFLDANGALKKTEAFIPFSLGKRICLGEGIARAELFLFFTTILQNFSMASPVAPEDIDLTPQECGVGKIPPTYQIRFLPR
The description is as above. The format is biochemical. Conditions: read-out: IC50 (μM) / HLM. The text has this: human liver microsomes, cocktail probe assay, UPLC-MS/MS on CYP2B6

Series [4] deals with T4, CYP1A2 (Homo sapiens, UniProt P05177).
T4 construct: native enzyme in pooled human liver microsomes (IC50) or human-induced hepatocytes hiHeps (Km); read by phenacetin to acetaminophen
T4 sequence (P05177 2-516): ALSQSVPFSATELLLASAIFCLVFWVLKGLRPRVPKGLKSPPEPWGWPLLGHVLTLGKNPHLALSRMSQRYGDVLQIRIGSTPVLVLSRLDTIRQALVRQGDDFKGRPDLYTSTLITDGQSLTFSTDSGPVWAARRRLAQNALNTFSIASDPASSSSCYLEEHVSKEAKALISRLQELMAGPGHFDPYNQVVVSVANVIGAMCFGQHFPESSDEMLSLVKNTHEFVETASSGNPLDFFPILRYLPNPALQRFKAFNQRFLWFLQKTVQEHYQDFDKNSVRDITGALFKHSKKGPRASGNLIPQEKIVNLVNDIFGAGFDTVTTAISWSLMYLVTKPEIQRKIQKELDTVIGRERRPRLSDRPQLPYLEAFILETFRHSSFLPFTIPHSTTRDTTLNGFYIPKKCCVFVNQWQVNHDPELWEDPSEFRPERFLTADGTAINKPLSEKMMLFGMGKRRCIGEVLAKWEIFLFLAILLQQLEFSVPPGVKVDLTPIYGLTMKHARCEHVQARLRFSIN
Described as above. Conditions: read-out: IC50 (μM) / HLM. The format is biochemical. The text has this: human liver microsomes, cocktail probe assay, UPLC-MS/MS on CYP1A2

The target of series [5] is T3, CYP2B6. Put plainly: intact hiHeps cells, metabolite by UPLC-MS/MS, Lineweaver-Burk. The format is cell-based. Particulars: hepatocytes.
Series [6] has as its target T5, CYP2C9 (Homo sapiens, UniProt P11712).
T5 construct: native enzyme in human liver microsomes (IC50) or human-induced hepatocytes hiHeps (Km); read by diclofenac to 4'-hydroxydiclofenac
The description is as above. The format is cell-based. Conditions: hepatocytes.

Series [7] concerns the target T1, CYP3A4. Described as above. The format is cell-based.

T5 sequence (P11712 whole entry): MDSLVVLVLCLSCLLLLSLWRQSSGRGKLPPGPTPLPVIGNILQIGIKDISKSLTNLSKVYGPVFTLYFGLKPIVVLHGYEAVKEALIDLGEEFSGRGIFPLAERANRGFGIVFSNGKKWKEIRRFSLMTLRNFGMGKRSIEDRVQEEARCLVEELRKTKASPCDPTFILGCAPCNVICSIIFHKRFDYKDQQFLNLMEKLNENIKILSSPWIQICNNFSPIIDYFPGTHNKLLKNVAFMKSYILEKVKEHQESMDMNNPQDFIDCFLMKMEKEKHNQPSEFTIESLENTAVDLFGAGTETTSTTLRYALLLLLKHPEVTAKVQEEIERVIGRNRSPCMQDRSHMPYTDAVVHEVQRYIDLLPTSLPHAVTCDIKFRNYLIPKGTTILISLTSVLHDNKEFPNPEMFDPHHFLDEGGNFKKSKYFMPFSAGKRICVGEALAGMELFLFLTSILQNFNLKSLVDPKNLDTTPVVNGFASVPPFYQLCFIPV

On to `COc1cc(/C=C/C(=O)CC(=O)/C=C/c2ccc(O)c(OC)c2)ccc1O` [curcumin], for which the IC50 in series [1] is 21 ± 1.27 µM; in series [2] it was above 500 µM; in series [3], 30 ± 2.09 µM; in series [4], 50.1 ± 2.71 µM.

For `CC(NC(C)(C)C)C(=O)c1cccc(Cl)c1` (stereo not shown) [bupropion], the Km in series [5] was 151 µM.

As to `O=C(O)Cc1ccccc1Nc1c(Cl)cccc1Cl` [diclofenac], the Km in series [6] came to 41.9 µM.

On to `Cc1ncc2n1-c1ccc(Cl)cc1C(c1ccccc1F)=NC2` [midazolam], for which the Km in series [7] was 13.9 µM.
